pIC50: −log10 of the molar value.
Molecular target: DNA gyrase (Escherichia coli)
Test: Inhibitory concentration against Escherichia coli by Escherichia coli DNA gyrase gel-based supercoil assay

- pIC50: 4.90
SMILES: CCOC(=O)c1cn(CC)c2cc(N3CCN(C(=O)c4ccc(N5C[C@H](CNC(C)=O)OC5=O)cc4F)CC3)c(F)cc2c1=O [7-(4-{4-[(S)-5-(Acetylamino-methyl)-2-oxo-oxazolidin-3-yl]-2-fluoro-benzoyl}-piperazin-1-yl)-1-ethyl-6-fluoro-4-oxo-1,4-dihydro-quinoline-3-carboxylic acid ethyl ester]

— BindingDB's records for doi:10.1016/j.bmcl.2003.07.021 (Vicuron Pharmaceuticals, 2003)
